Data from patent publication US20260092061A1, “COMPOUNDS FOR TARGETED PROTEIN DEGRADATION” (Amphista Therapeutics Limited, priority 2022, published 2026).

Biological target: T1, BRD9 (Homo sapiens, UniProt Q9H8M2)
T1 sequence (Q9H8M2 1-597): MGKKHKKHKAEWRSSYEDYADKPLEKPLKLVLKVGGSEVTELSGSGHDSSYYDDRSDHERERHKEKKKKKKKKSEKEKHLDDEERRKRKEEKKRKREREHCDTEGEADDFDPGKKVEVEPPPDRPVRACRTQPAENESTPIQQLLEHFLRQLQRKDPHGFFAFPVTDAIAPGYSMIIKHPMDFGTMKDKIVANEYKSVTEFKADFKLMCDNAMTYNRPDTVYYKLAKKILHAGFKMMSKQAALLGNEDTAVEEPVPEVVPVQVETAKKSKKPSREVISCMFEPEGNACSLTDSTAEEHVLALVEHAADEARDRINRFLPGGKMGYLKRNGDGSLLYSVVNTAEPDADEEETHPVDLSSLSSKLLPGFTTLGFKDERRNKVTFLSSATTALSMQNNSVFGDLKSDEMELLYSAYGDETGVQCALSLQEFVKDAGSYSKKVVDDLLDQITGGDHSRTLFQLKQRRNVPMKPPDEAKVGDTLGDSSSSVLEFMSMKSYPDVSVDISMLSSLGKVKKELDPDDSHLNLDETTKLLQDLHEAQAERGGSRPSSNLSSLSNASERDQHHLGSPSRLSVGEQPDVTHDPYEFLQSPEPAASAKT
Assay: Degradation of BRD9 (IF), immunofluorescence in MV4-11 cells, 24 hours (Assay Protocol 2)
Type: cell-based
Design: A suspension of MV4-11 cells (ATCC CRL-9591) was prepared; host or cells: MV4-11
Settings: BRD9 degradation; for DC50: Assay protocol 2, read-out: DC50; for Dmax: MV4-11, Assay protocol 2, read-out: Dmax
In short: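 % BRD9 remaining, scaled between DMSO (high) and 100 nM CFT-8634 (low) control wells, derives from mean Alexa 647 contrast in central nuclei by high-content imaging. MV4-11 cells had 24 h compound exposure at 37° C. before PFA fixation, Triton permeabilisation and anti-BRD9 E4Q3F immunostaining.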

Row | DC50 | Dmax | Compound
1 | 25 to 1000 nM | 40 to 70% | COc1cc(-c2cn(C)c(=O)c(C)c2C)cc(OC)c1CN1C[C@H](C)N(Cc2cccc3c2CCN(C(=O)/C(C#N)=C/c2cccc(Br)n2)C3C)[C@@H](C)C1 (mixture of isomers) [Compound B110, (E/Z)-3-(6-bromopyridin-2-yl)-2-(5-(((2S,6S)-4-(2,6-dimethoxy-4-(1,4,5-trimethyl-6-oxo-1,6-dihydropyridin-3-yl)benzyl)-2,6-dimethylpiperazin-1-yl)methyl)-1-methyl-1,2,3,4-tetrahydroisoquinoline-2-carbonyl)acrylonitrile]
2 | 10 to 25 nM | > 75% | COc1cc(-c2cn(C)c(=O)c(C)c2C)cc(OC)c1CN1C[C@@H](C)N(Cc2cccc3c2CCN(C(=O)/C(C#N)=C/C(C)(C)C)C3C)C[C@@H]1C (mixture of isomers) [Compound B111, (E/Z)-2-(5-(((2R,5S)-4-(2,6-dimethoxy-4-(1,4,5-trimethyl-6-oxo-1,6-dihydropyridin-3-yl)benzyl)-2,5-dimethylpiperazin-1-yl)methyl)-1-methyl-1,2,3,4-tetrahydroisoquinoline-2-carbonyl)-4,4-dimethylpent-2-enenitrile]
3 | 10 to 25 nM | > 75% | COc1cc(-c2cn(C)c(=O)c(C)c2C)cc(OC)c1CN1CCN(Cc2cccc3c2CCN(C(=O)/C(C#N)=C/C(C)(C)C)C3C)C(=O)C1(C)C (mixture of isomers) [Compound B112, (E/Z)-2-(5-((4-(2,6-dimethoxy-4-(1,4,5-trimethyl-6-oxo-1,6-dihydropyridin-3-yl)benzyl)-3,3-dimethyl-2-oxopiperazin-1-yl)methyl)-1-methyl-1,2,3,4-tetrahydroisoquinoline-2-carbonyl)-4,4-dimethylpent-2-enenitrile]
4 | 1.25 to 10 nM | > 75% | CC[C@H]1CN(Cc2c(OC)cc(-c3cn(C)c(=O)c(C)c3C)cc2OC)CCN1Cc1cccc2c1CCN(C(=O)/C(C#N)=C/C(C)(C)C)C2C (mixture of isomers) [Compound B113, (E/Z)-2-(5-(((S)-4-(2,6-dimethoxy-4-(1,4,5-trimethyl-6-oxo-1,6-dihydropyridin-3-yl)benzyl)-2-ethylpiperazin-1-yl)methyl)-1-methyl-1,2,3,4-tetrahydroisoquinoline-2-carbonyl)-4,4-dimethylpent-2-enenitrile]
5 | 1.25 to 10 nM | > 75% | COc1cc(-c2cn(C)c(=O)c(C)c2C)cc(OC)c1CN1[C@H](C)CN(Cc2cccc3c2CCN(C(=O)/C(C#N)=C/C(C)(C)C)C3C)C[C@@H]1C (mixture of isomers) [Compound B114, (E/Z)-2-(5-(((3S,5R)-4-(2,6-dimethoxy-4-(1,4,5-trimethyl-6-oxo-1,6-dihydropyridin-3-yl)benzyl)-3,5-dimethylpiperazin-1-yl)methyl)-1-methyl-1,2,3,4-tetrahydroisoquinoline-2-carbonyl)-4,4-dimethylpent-2-enenitrile]
6 | 1.25 to 10 nM | > 75% | COc1cc(-c2cn(C)c(=O)c(C)c2C)cc(OC)c1CN1C[C@@H](C)N(Cc2cccc3c2CCN(C(=O)/C(C#N)=C/C(C)(C)C)C3C)C[C@H]1C (mixture of isomers) [Compound B115, (E/Z)-2-(5-(((2R,5R)-4-(2,6-dimethoxy-4-(1,4,5-trimethyl-6-oxo-1,6-dihydropyridin-3-yl)benzyl)-2,5-dimethylpiperazin-1-yl)methyl)-1-methyl-1,2,3,4-tetrahydroisoquinoline-2-carbonyl)-4,4-dimethylpent-2-enenitrile]
7 | 1.25 to 10 nM | > 75% | CCC(C)(C)/C=C(\C#N)C(=O)N1CCc2c(CN3CCN(Cc4c(OC)cc(-c5cn(C)c(=O)c(C)c5C)cc4OC)CC34CC4)cccc2C1C (mixture of isomers) [Compound B117, (E/Z)-2-(5-((7-(2,6-dimethoxy-4-(1,4,5-trimethyl-6-oxo-1,6-dihydropyridin-3-yl)benzyl)-4,7-diazaspiro[2.5]octan-4-yl)methyl)-1-methyl-1,2,3,4-tetrahydroisoquinoline-2-carbonyl)-4,4-dimethylhex-2-enenitrile]
8 | < 1.25 nM | 70 to 75% | COc1cc(-c2cn(C)c(=O)c3[nH]ncc23)cc(OC)c1CN1CCN(Cc2cccc3c2CCN(C(=O)/C(C#N)=C/c2cccc(Br)n2)C3C)C2(CC2)C1 (mixture of isomers) [Compound B118, (E/Z)-3-(6-bromopyridin-2-yl)-2-(5-((7-(2,6-dimethoxy-4-(6-methyl-7-oxo-6,7-dihydro-1H-pyrazolo[3,4-c]pyridin-4-yl)benzyl)-4,7-diazaspiro[2.5]octan-4-yl)methyl)-1-methyl-1,2,3,4-tetrahydroisoquinoline-2-carbonyl)acrylonitrile]
9 | 10 to 25 nM | 40 to 70% | COc1cc(-c2cn(C)c(=O)c(C)c2C)cc(OC)c1CN1CCN(Cc2cccc3c2CCN(C(=O)/C(C#N)=C/C(C)(C)C)C3C)[C@H](C)C1 (mixture of isomers) [Compound B119, (E/Z)-2-(5-(((R)-4-(2,6-dimethoxy-4-(1,4,5-trimethyl-6-oxo-1,6-dihydropyridin-3-yl)benzyl)-2-methylpiperazin-1-yl)methyl)-1-methyl-1,2,3,4-tetrahydroisoquinoline-2-carbonyl)-4,4-dimethylpent-2-enenitrile]
10 | 1.25 to 10 nM | 70 to 75% | CC[C@@H]1CN(Cc2cccc3c2CCN(C(=O)/C(C#N)=C/C(C)(C)C)C3C)CCN1Cc1c(OC)cc(-c2cn(C)c(=O)c(C)c2C)cc1OC (mixture of isomers) [Compound B120, (E/Z)-2-(5-(((R)-4-(2,6-dimethoxy-4-(1,4,5-trimethyl-6-oxo-1,6-dihydropyridin-3-yl)benzyl)-3-ethylpiperazin-1-yl)methyl)-1-methyl-1,2,3,4-tetrahydroisoquinoline-2-carbonyl)-4,4-dimethylpent-2-enenitrile]
11 | 25 to 1000 nM | 40 to 70% | COc1cc(-c2cn(C)c(=O)c(C)c2C)cc(OC)c1CN1C[C@H](C)N(Cc2cccc3c2CCN(C(=O)/C(C#N)=C/C(C)(C)C)C3C)C[C@@H]1C (mixture of isomers) [Compound B121, (E/Z)-2-(5-(((2S,5S)-4-(2,6-dimethoxy-4-(1,4,5-trimethyl-6-oxo-1,6-dihydropyridin-3-yl)benzyl)-2,5-dimethylpiperazin-1-yl)methyl)-1-methyl-1,2,3,4-tetrahydroisoquinoline-2-carbonyl)-4,4-dimethylpent-2-enenitrile]
12 | 10 to 25 nM | > 75% | COc1cc(-c2cn(C)c(=O)c(C)c2C)cc(OC)c1CN1CCN(Cc2cccc3c2CCN(C(=O)/C(C#N)=C/C(C)(C)C)C3C)C2(CCC2)C1 (mixture of isomers) [Compound B130, (E/Z)-2-(5-((8-(2,6-dimethoxy-4-(1,4,5-trimethyl-6-oxo-1,6-dihydropyridin-3-yl)benzyl)-5,8-diazaspiro[3.5]nonan-5-yl)methyl)-1-methyl-1,2,3,4-tetrahydroisoquinoline-2-carbonyl)-4,4-dimethylpent-2-enenitrile]
13 | 1.25 to 10 nM | > 75% | COc1cc(-c2cn(C)c(=O)c(C)c2C)cc(OC)c1CN1CCN(Cc2cccc3c2CCN(C(=O)/C(C#N)=C/c2cccc(Br)n2)C3C)C(C(C)C)C1 (mixture of isomers) [Compound B131, (E/Z)-3-(6-bromopyridin-2-yl)-2-(5-((4-(2,6-dimethoxy-4-(1,4,5-trimethyl-6-oxo-1,6-dihydropyridin-3-yl)benzyl)-2-isopropylpiperazin-1-yl)methyl)-1-methyl-1,2,3,4-tetrahydroisoquinoline-2-carbonyl)acrylonitrile]
